# Laboratory results: US10618918B2, “Substituted boronic acids as antimicrobials” (priority 2015, dated 2020)
# What was measured:
# KP1004 KPC-2 [1] = assay: Aztreonam potentiation (MPC@4), strain KP1004 KPC-2
# PAM1032/KPC-2 = assay: Biapenem potentiation MPC64 in PAM1032/KPC-2 (efflux proficient, overexpresses MexAB-OprM); type: cell-based, Pseudomonas aeruginosa
# Experimental: (§1) Efflux of BLIs from Pseudomonas aeruginosa by the MexAB-OprM efflux pump was also evaluated. The plasmid expressing the gene encoding KPC-2 was introduced into two strains of P. aeruginosa, PAM1032 and PAM 1154 that overexpressed or lacked MexAB-OprM, respectively. […] Potency of BLIs to potentiate biapenem in these strains was determined.
# PAM1154/KPC-2 = assay: Biapenem potentiation MPC64 in PAM1154/KPC-2 (efflux deficient, lacks MexAB-OprM); type: cell-based, Pseudomonas aeruginosa
# Experimental: as §1
# KP1005 CTX-M-14 = assay: Tigemonam potentiation (MPC@4), strain KP1005 CTX-M-14
# [2] = molecular target: T1, purified class A, C and D enzymes (β-lactamases) (Pseudomonas aeruginosa, UniProt P24735); assay: biochemical; type: biochemical
# T1 construct: rows headed: Ki (Pa-AmpC, NCF), uM; other: purified Pa-AmpC; nitrocefin (NCF) as reporter substrate
# T1 sequence (P24735 whole entry): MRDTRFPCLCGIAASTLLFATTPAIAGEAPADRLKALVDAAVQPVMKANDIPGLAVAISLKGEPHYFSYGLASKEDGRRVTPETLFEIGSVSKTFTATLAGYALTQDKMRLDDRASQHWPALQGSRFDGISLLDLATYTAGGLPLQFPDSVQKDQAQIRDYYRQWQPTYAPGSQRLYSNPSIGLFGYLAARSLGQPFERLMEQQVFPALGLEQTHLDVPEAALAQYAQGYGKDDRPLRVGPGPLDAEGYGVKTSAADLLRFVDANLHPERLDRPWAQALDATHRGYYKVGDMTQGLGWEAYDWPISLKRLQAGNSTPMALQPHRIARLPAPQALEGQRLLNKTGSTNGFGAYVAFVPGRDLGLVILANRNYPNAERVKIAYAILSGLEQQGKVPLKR
# [3] = molecular target: purified class A, C and D enzymes (β-lactamases) (Klebsiella pneumoniae, UniProt Q9F663); assay: biochemical; type: biochemical
# biochemical = type: biochemical
# [4] = molecular target: purified class A, C and D enzymes (β-lactamases) (Escherichia coli, UniProt Q9L5C7); assay: biochemical; type: biochemical
# purified class A, C and D enzymes (β-lactamases) (Escherichia coli, UniProt Q9L5C7), sequence (Q9L5C7 entry or part of it): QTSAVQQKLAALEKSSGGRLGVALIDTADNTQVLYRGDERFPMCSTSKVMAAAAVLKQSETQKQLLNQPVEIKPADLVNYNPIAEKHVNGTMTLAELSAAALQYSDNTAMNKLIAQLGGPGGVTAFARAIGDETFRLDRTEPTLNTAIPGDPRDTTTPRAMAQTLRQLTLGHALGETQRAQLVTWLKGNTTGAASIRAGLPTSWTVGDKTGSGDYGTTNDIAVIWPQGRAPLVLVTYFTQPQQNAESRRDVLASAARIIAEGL
# [5] = molecular target: purified class A, C and D enzymes (β-lactamases) (Klebsiella pneumoniae, UniProt Q6XEC0); assay: biochemical; type: biochemical
# [6] = molecular target: T2, purified class A, C and D enzymes (β-lactamases) (UniProt P0AD64, L31Q/G234S/E235K, species not given); assay: biochemical; type: biochemical; settings: read-out: Ki (SHV-12, NCF); purified SHV-12; nitrocefin (NCF) as reporter substrate
# T2 construct: Ki (SHV-12, NCF), uM; other: purified SHV-12; nitrocefin (NCF) as reporter substrate
# T2 sequence (P0AD64 1-286 L31Q/G234S/E235K): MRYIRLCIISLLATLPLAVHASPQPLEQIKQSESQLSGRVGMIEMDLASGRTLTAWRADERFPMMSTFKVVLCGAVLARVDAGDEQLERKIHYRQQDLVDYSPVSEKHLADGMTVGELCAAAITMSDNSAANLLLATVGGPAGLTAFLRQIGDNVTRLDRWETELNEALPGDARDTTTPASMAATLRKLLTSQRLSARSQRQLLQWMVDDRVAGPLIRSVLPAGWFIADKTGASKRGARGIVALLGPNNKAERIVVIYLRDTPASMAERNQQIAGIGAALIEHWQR
# [7] = molecular target: purified class A, C and D enzymes (β-lactamases) (Enterobacter cloacae, UniProt P05364); assay: biochemical; type: biochemical
# purified class A, C and D enzymes (β-lactamases) (Enterobacter cloacae, UniProt P05364), sequence (P05364 21-381): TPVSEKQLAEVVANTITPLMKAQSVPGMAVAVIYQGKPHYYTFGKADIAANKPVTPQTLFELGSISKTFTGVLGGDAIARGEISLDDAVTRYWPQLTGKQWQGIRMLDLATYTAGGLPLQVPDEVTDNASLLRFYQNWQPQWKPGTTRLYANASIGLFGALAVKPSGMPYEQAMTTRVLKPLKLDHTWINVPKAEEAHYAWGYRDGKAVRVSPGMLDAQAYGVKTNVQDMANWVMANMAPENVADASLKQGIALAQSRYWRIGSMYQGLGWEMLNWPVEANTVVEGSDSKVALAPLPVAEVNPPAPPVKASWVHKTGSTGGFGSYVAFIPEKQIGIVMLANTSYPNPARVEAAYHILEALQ
# KP1010 SHV-12 = assay: Aztreonam potentiation (MPC@4), strain KP1010 SHV-12
# ECL1002 = assay: Aztreonam potentiation (MPC@4), strain ECL1002; settings: minimum BLI concentration inhibiting growth with aztreonam 4 μg/mL; tested up to 40 μg/mL
# KP1009 CTX-M-15 = assay: Aztreonam potentiation (MPC@4), strain KP1009 CTX-M-15; settings: minimum BLI concentration inhibiting growth with aztreonam 4 μg/mL; tested up to 40 μg/mL
# AB1054 OXA-23 = assay: Meropenem potentiation (MPC@8), strain AB1054 OXA-23; type: cell-based, Acinetobacter baumannii
# KP1004 KPC-2 [8] = assay: Biapenem potentiation (MPC@1), strain KP1004 KPC-2; type: cell-based; settings: minimum BLI concentration inhibiting growth with biapenem 1 μg/mL; tested up to 40 μg/mL
# Experimental: (§2) Biapenem was present in the test medium at 1 μg/mL. […] Table 3 summarizes the BLI potency of biapenem potentiation (MPC@1) for two strains overexpressing class A (KPC) and class D (OXA-48) carbapenemases. Biapenem MIC for each strain is also shown.
# EC1010 CMY-6 = assay: Aztreonam potentiation (MPC@4), strain EC1010 CMY-6
# KP1086 OXA-48 = assay: Biapenem potentiation (MPC@1), strain KP1086 OXA-48; type: cell-based; settings: minimum BLI concentration inhibiting growth with biapenem 1 μg/mL; tested up to 40 μg/mL
# Experimental: as §2
# ec302 TEM-10 = assay: Aztreonam potentiation (MPC@4), strain ec302 TEM-10; settings: minimum BLI concentration inhibiting growth with aztreonam 4 μg/mL; tested up to 40 μg/mL
# ec308 SHV-5 = assay: Aztreonam potentiation (MPC@4), strain ec308 SHV-5; settings: minimum BLI concentration inhibiting growth with aztreonam 4 μg/mL; tested up to 40 μg/mL
# AB1053 OXA-72 = assay: Meropenem potentiation (MPC@8), strain AB1053 OXA-72; type: cell-based, Acinetobacter baumannii; settings: minimum BLI concentration inhibiting growth with meropenem 8 μg/mL; tested up to 20 μg/mL
Structure (SMILES),AZT MPC4 KPC-2 KP1004 (KP1004 KPC-2 [1]),PAM1032/KPC-2 Biapenem MPC64 (PAM1032/KPC-2),PAM1154/KPC-2 Biapenem MPC64 (PAM1154/KPC-2),TIG MPC4 CTX-M-14 KP1005 (KP1005 CTX-M-14),Ki [2],"Ki (KPC-2, NCF), uM [3]",Ki (biochemical),"Ki (CTX-M-14, NCF), uM [4]","Ki (OXA-48, NCF), uM [5]","Ki (P99, NCF), uM [7]",AZT MPC4 SHV-12 KP1010 (KP1010 SHV-12),AZT MPC4 ECL1002 (ECL1002),AZT MPC4 CTX-M-15 KP1009 (KP1009 CTX-M-15),MPM MPC8 AB1054 OXA-23 (AB1054 OXA-23),BPM MPC1 KP1004 KPC-2 (KP1004 KPC-2 [8]),AZT MPC4 CMY-6 EC1010 (EC1010 CMY-6),BPM MPC1 OXA-48 KP1086 (KP1086 OXA-48),AZT MPC4 TEM-10 ec302 (ec302 TEM-10),AZT MPC4 SHV-5 ec308 (ec308 SHV-5),MPM MPC8 AB1053 OXA-72 (AB1053 OXA-72),further results
"COc1ccc2c(c1C(=O)[O-])O[B-](O)(O)CC2.[Na+].[Na+] [Compound 7, DISODIUM; 4,4-DIHYDROXY-8-METHOXY-5-OXA-4-BORANUIDABICYCLO[4.4.0]DECA-1(6),7,9-TRIENE-7-CARBOXYLATE]",X (key: X = MPC@4 ≤ 5 μg/mL; Y = 5 μg/mL < MPC@4 ≤ 20 μg/mL; Z = MPC@4 > 20 μg/mL),2.5,0.6,X (key: X = MPC@4 ≤ 5 μg/mL; Y = 5 μg/mL < MPC@4 ≤ 20 μg/mL; Z = MPC@4 > 20 μg/mL),< 100 nM,X (key: X = Ki ≤ 0.1 μM; Y = 0.1 μM < Ki ≤ 1 μM; Z = Ki > 1 μM),< 100 nM,X (key: X = Ki ≤ 0.1 μM; Y = 0.1 μM < Ki ≤ 1 μM; Z = Ki > 1 μM),X (key: X = Ki ≤ 0.1 μM; Y = 0.1 μM < Ki ≤ 1 μM; Z = Ki > 1 μM),X (key: X = Ki ≤ 0.1 μM; Y = 0.1 μM < Ki ≤ 1 μM; Z = Ki > 1 μM),X (key: X = MPC@4 ≤ 5 μg/mL; Y = 5 μg/mL < MPC@4 ≤ 20 μg/mL; Z = MPC@4 > 20 μg/mL),X (X = MPC@4 ≤ 5 μg/mL),X (X = MPC@4 ≤ 5 μg/mL),X (key: X = MPC@1 ≤ 5 μg/mL; Y = 5 μg/mL < MPC@1 ≤ 20 μg/mL; Z = MPC@1 > 20 μg/mL),X (X = MPC@1 ≤ 5 μg/mL),X (key: X = MPC@4 ≤ 5 μg/mL; Y = 5 μg/mL < MPC@4 ≤ 20 μg/mL; Z = MPC@4 > 20 μg/mL),X (X = MPC@1 ≤ 5 μg/mL),X (X = MPC@4 ≤ 5 μg/mL),X (X = MPC@4 ≤ 5 μg/mL),X (X = MPC@1 ≤ 5 μg/mL),Ki [6]: < 100 nM
"O=C([O-])c1c(F)ccc2c1O[B-](O)(O)CC2.[Na+].[Na+] [Compound 8, DISODIUM; 8-FLUORO-4,4-DIHYDROXY-5-OXA-4-BORANUIDABICYCLO[4.4.0]DECA-1(6),7,9-TRIENE-7-CARBOXYLATE]",X (key: X = MPC@4 ≤ 5 μg/mL; Y = 5 μg/mL < MPC@4 ≤ 20 μg/mL; Z = MPC@4 > 20 μg/mL),5,0.6,X (key: X = MPC@4 ≤ 5 μg/mL; Y = 5 μg/mL < MPC@4 ≤ 20 μg/mL; Z = MPC@4 > 20 μg/mL),< 100 nM,X (key: X = Ki ≤ 0.1 μM; Y = 0.1 μM < Ki ≤ 1 μM; Z = Ki > 1 μM),< 100 nM,X (key: X = Ki ≤ 0.1 μM; Y = 0.1 μM < Ki ≤ 1 μM; Z = Ki > 1 μM),X (key: X = Ki ≤ 0.1 μM; Y = 0.1 μM < Ki ≤ 1 μM; Z = Ki > 1 μM),X (key: X = Ki ≤ 0.1 μM; Y = 0.1 μM < Ki ≤ 1 μM; Z = Ki > 1 μM),X (key: X = MPC@4 ≤ 5 μg/mL; Y = 5 μg/mL < MPC@4 ≤ 20 μg/mL; Z = MPC@4 > 20 μg/mL),X (X = MPC@4 ≤ 5 μg/mL),X (X = MPC@4 ≤ 5 μg/mL),X (key: X = MPC@1 ≤ 5 μg/mL; Y = 5 μg/mL < MPC@1 ≤ 20 μg/mL; Z = MPC@1 > 20 μg/mL),X (X = MPC@1 ≤ 5 μg/mL),X (key: X = MPC@4 ≤ 5 μg/mL; Y = 5 μg/mL < MPC@4 ≤ 20 μg/mL; Z = MPC@4 > 20 μg/mL),X (X = MPC@1 ≤ 5 μg/mL),X (X = MPC@4 ≤ 5 μg/mL),X (X = MPC@4 ≤ 5 μg/mL),X (X = MPC@1 ≤ 5 μg/mL),–
